Test results from patent publication US5795907A, “Gastin and CCK receptor ligands” (James Black Foundation Limited, priority 1994, dated 1998).

Assays:
CCKA = target: T1, CCKA (Cavia porcellus, UniProt Q63931); assay: CCKA radioligand binding assay in guinea-pig pancreas membranes ([125I]-CCK8(S)); conditions: PD134,308 present, 150 minutes at 21±3°; for Ki: read-out: CCKA pKi (converted)
T1 construct: The pancreatata were homogenised in 40 ml ice-cold HEPES buffer using a polytron; from tissue; host or cells: pancreas membranes of male Dunkin Hartley guinea-pigs
T1 sequence (Q63931 1-430): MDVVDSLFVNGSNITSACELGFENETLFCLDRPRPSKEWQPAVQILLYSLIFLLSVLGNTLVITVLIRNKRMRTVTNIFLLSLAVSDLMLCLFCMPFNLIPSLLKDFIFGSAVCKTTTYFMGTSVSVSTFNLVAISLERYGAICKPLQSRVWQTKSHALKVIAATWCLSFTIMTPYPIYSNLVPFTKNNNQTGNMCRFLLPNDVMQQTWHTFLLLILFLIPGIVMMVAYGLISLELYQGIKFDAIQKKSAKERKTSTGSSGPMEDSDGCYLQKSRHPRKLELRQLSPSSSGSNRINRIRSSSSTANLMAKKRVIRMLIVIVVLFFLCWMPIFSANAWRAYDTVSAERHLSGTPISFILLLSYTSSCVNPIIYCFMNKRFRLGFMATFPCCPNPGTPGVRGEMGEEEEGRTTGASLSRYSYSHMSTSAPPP
Protocol: The compounds of the examples were also tested in a CCKA as follows:
The pancreatata were removed from male guinea-pigs (200-300 g; Dunkin Hartley) and placed in ice-cold HEPES buffer (pH 7.2 @ 21 ±3). The pancreatata were homogenised in 40 ml ice-cold HEPES buffer using a polytron (Brinkmann, PT10, setting 10) 4×1 second. The homogenate was centrifuged at 39,800 g for 15 min at 4°. The supernatant was discarded and the pellet re-suspended using a Teflon-in-glass homogeniser in 20 volumes of fresh buffer and re-centrifuged as above.
The final pellet was re-suspended using a Teflon-in-glass homogeniser to a tissue concentration of 1 mg.ml^-1 (original wet weight), and filtered through 500 μm pore-size Nytex mesh.
The membranes (400 μl; containing 0.375 μM PD134,308) are incubated for 150 minutes at 21±3° in a final volume of 0.5 ml with HEPES buffer containing [^125 I]-CCK8 (S) (50 μl; […]) and competing compound. Total and non-specific binding of [^125 I]-CCK8 (S) are defined using 50 μl of buffer and 50 μl of 100 nM L-364,718 respectively. The assay is terminated by rapid filtration through pre-soaked Whatman GF/B filters using a Brandell Cell Harvester. The filters were washed (3×3 ml) with ice-cold 50 mM Tris HCl (pH 7.4 at 4°) and bound radioactivity is determined by counting (1 min) in a gamma counter.

CCKB receptor = target: T2, CCKB receptor (Mus musculus, UniProt P56481); assay: CCKB receptor radioligand binding assay in mouse cortical membranes ([125I]-CCK8S); conditions: [125I]-CCK8S 200 pM, 150 min at 21±3°; for Ki: read-out: CCKB pKi (converted)
T2 construct: The cortex was dissected, weighed and homogenised in 40ml ice-cold buffer; tissue Charles River (supplier of the CD1 mice); host or cells: cerebral cortex membranes of male CD1 mice
T2 sequence (P56481 1-453): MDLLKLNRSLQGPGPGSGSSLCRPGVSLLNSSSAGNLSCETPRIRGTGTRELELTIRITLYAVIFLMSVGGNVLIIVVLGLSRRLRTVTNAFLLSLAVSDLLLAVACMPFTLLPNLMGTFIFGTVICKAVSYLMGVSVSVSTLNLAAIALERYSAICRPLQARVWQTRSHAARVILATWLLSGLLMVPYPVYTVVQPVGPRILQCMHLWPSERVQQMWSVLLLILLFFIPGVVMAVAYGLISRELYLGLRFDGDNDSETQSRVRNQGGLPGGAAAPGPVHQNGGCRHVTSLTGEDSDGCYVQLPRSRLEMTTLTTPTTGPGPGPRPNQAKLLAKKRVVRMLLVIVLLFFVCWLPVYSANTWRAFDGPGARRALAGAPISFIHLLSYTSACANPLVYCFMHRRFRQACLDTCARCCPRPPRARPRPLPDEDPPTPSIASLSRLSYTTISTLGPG
Protocol: The compounds of the examples were tested for binding at the CCKB receptor in mouse cortical membranes by means of a radioligand binding assay. The procedure was as follows:
The whole brains from male mice (CD1 22-25 g; Charles River) were removed and placed in ice-cold buffer (pH7.2 @ 21±3°) of the following composition (mM); 10 HEPES, 130 NaCl, 4.7 KCl, 5 MgCl2, 1 EDTA and containing 0.25g.^-1 bacitracin. The cortex was dissected, weighed and homogenised in 40ml ice-cold buffer using a Teflon-in-glass homogeniser. The homogenate was centrifuged at 39,800g for 20 min at 4°, the supernatant discarded and the pellet resuspended by homogenisation in fresh buffer. The homogenate was recentrifuged (39,800 g; 20 min @ 4°) and the final pellet was resuspended in HEPES buffer to give a tissue concentration of 2 mg.ml^-1 (original wet weight).
The membranes ([…]) were incubated for 150 min at 21±3° in a final volume of 0.5 ml with HEPES buffer containing [^125 I]-CCK8S (0.05 ml; 200 pM NEN 2200 Ci.mmol^-1) and competing compound. Total and non-specific binding of [^125 I]-CCK8S were defined using 0.05 ml of buffer and 0.05 ml of […] L-365,260, respectively. The assay was terminated by rapid filtration through pre-soaked Whatman GF/B filters using a Brandell Cell harvester. The filters were washed (3×3 ml) with ice-cold 50 mM Tris-HCl (pH7.4 @ 4° C.) and bound radioactivity determined by counting (1 min.) in a gamma-counter.

Ki (CCKA) [µM] | Ki (CCKB receptor) [µM] | CCKA pKi (CCKA) | CCKB pKi (CCKB receptor) | Structure (SMILES)
 |  | 5.9 | 7.4 | O=C(NCC12CC3CC(CC(C3)C1)C2)c1cc2[nH]ccc2cc1C(=O)N[C@@H](Cc1ccccc1)C(=O)Nc1cccc(NS(=O)(=O)C(F)(F)F)c1 [Example 102, 5-(1S-(3-trifluoromethylsulphonylaminophenylaminocarbonyl)-2-phenylethylaminocarbonyl)-6-(1-adamantanemethylaminocarbonyl)-indole]
> 10 | 1.58 |  |  | Cc1nc2cc(C(=O)NCC34CC5CC(CC(C5)C3)C4)c(C(=O)N[C@@H](Cc3ccccc3)C(=O)Nc3cc(C(=O)O)cc(C(=O)O)c3)cc2[nH]1 [Example 111, 5-(1S-(3,5-dicarboxyphenylaminocarbonyl)-2-phenylethylaminocarbonyl)-6-(1-adamantanemethylaminocarbonyl)-2-methylbenzimidazole]
3.16 | 1 |  |  | CCCCc1nc2cc(C(=O)NCC34CC5CC(CC(C5)C3)C4)c(C(=O)N[C@@H](Cc3ccccc3)C(=O)Nc3cc(C(=O)O)cc(C(=O)O)c3)cc2[nH]1 [Example 114, 5-(1S-(3,5-dicarboxyphenylaminocarbonyl)-2-phenylethylaminocarbonyl)-6-(1-adamantanemethylaminocarbonyl)-2-n-butylbenzimidazole]
1.58 | 0.794 |  |  | NC(=O)c1cc(NC(=O)[C@H](Cc2ccccc2)NC(=O)c2cc3[nH]cnc3cc2C(=O)NCC23CC4CC(CC(C4)C2)C3)cc(C(N)=O)c1 [Example 117, 5-(1S-(3,5-diaminocarbonylphenylaminocarbonyl)-2-phenylethylaminocarbonyl)-6-(1-adamantanemethylaminocarbonyl)-benzimidazole]
 |  | 5.6 | 6.2 | O=C(NCC12CC3CC(CC(C3)C1)C2)c1cc2nc[nH]c2cc1C(=O)N[C@@H](Cc1ccccc1)C(=O)Nc1cc(CO)cc(CO)c1 [Example 119, 5-(1S-(3,5-dihydroxymethylphenylaminocarbonyl)-2-phenylethylaminocarbonyl)-6-(1-adamantanemethylaminocarbonyl)-benzimidazole]
1 | 0.631 |  |  | O=Cc1cc(C=O)cc(NC(=O)[C@H](Cc2ccccc2)NC(=O)c2cc3[nH]cnc3cc2C(=O)NCC23CC4CC(CC(C4)C2)C3)c1 [Example 120, 5-(1S-(3,5-hydrogencarbonylphenylaminocarbonyl)-2-phenylethylaminocarbonyl)-6-(1-adamantanemethylaminocarbonyl)-benzimidazole]
7.94 | 0.2 |  |  | O=C(O)c1cc(NC(=O)[C@@H]2Cc3ccccc3CN2C(=O)c2cc3[nH]cnc3cc2C(=O)NCC23CC4CC(CC(C4)C2)C3)cc(C(=O)O)c1 [Example 129, 5-(3S-(3,5-dicarboxyphenylaminocarbonyl)-1,2,3,4-tetrahydroisoquinolino-2-carbonyl)-6-(1-adamantanemethylaminocarbonyl)-benzimidazole]

More lines, now with the values behind:

Structure (SMILES) | Ki (CCKA) [µM] | Ki (CCKB receptor) [µM] | CCKA pKi (CCKA) | CCKB pKi (CCKB receptor)
O=C(NCC12CC3CC(CC(C3)C1)C2)c1cc2nc[nH]c2cc1C(=O)N[C@@H](Cc1ccccc1)C(=O)Nc1ccc(F)cc1 [Example 68, 5-(1S-(4-fluorophenylaminocarbonyl)-2-phenylethylaminocarbonyl)-6-(1-adamantanemethylaminocarbonyl)-benzimidazole] | 1.26 | 1.26 |  | 
O=C(NCC12CC3CC(CC(C3)C1)C2)c1cc2nc[nH]c2cc1C(=O)N[C@@H](Cc1ccccc1F)C(=O)Nc1cc(-c2nn[nH]n2)cc(-c2nn[nH]n2)c1 [Example 84, 5-(1S-(3,5-ditetrazolylphenylaminocarbonyl)-2-(2-fluorophenyl)ethylaminocarbonyl)-6-(1-adamantanemethylaminocarbonyl)-benzimidazole] | 0.631 | 0.00251 |  | 
O=C(NCC12CC3CC(CC(C3)C1)C2)c1cc2[nH]ccc2cc1C(=O)N[C@@H](Cc1ccccc1)C(=O)Nc1cc(NC(=O)C(F)(F)F)cc(NC(=O)C(F)(F)F)c1 [Example 94, 5-(1S-(3,5-di-trifluoromethylcarbonylaminophenylamino-carbonyl)-2-phenylethylaminocarbonyl)-6-(1-adamantanemethylaminocarbonyl)-indole] |  |  | 5.0 | 6.7
NS(=O)(=O)c1cc(NC(=O)[C@H](Cc2ccccc2)NC(=O)c2cc3cc[nH]c3cc2C(=O)NCC23CC4CC(CC(C4)C2)C3)cc(S(N)(=O)=O)c1 [Example 96, 5-(1S-(3,5-di-aminosulphonylphenylaminocarbonyl)-2-phenylethylaminocarbonyl)-6-(1-adamantanemethylaminocarbonyl)-indole] |  |  | 5.7 | 6.3
O=C(NCC12CC3CC(CC(C3)C1)C2)c1cc2[nH]ccc2cc1C(=O)N[C@@H](Cc1ccccc1F)C(=O)Nc1cc(-c2nn[nH]n2)cc(-c2nn[nH]n2)c1 [Example 97, 5-(1S-(3,5-ditetrazolylphenylaminocarbonyl)-2-(2-fluorophenyl)ethylaminocarbonyl)-6-(1-adamantanemethylaminocarbonyl)-indole] | 0.501 | 0.000794 |  | 
O=C(NCC12CC3CC(CC(C3)C1)C2)c1cc2cc[nH]c2cc1C(=O)N[C@@H](Cc1ccccc1F)C(=O)Nc1cc(-c2nn[nH]n2)cc(-c2nn[nH]n2)c1 [Example 98, 6-(1S-(3,5-ditetrazolylphenylaminocarbonyl)-2-(2-fluorophenyl)ethylaminocarbonyl)-5-(1-adamantanemethylaminocarbonyl)-indole] | 0.2 | 0.00398 |  | 
O=C(NCC12CC3CC(CC(C3)C1)C2)c1cc2[nH]ccc2cc1C(=O)N[C@@H](Cc1ccccc1)C(=O)Nc1cccc(S(=O)(=O)NC(=O)C(F)(F)F)c1 [Example 99, 5-(1S-(3-trifluoroacetylaminosulphonylphenylaminocarbonyl)-2-phenylethylaminocarbonyl)-6-(1-adamantanemethylaminocarbonyl)-indole] |  |  | 5.4 | 8.4
O=C(NCC12CC3CC(CC(C3)C1)C2)c1cc2cc[nH]c2cc1C(=O)N[C@@H](Cc1ccccc1)C(=O)Nc1cccc(-c2nn[nH]n2)c1 [Example 101, 6-(1S-(3-tetrazolylphenylaminocarbonyl)-2-phenylethylaminocarbonyl)-5-(1-adamantanemethylaminocarbonyl)-indole] | 0.251 | 0.0398 |  | 
